Laboratory results reported in patent US12324802B2, “Modulators of cystic fibrosis transmembrane conductance regulator” (Vertex Pharmaceuticals Incorporated, priority 2020, dated 2025).

Molecular target: T1, CFTR (F508del/MF-HBE cells) (Homo sapiens, UniProt P13569, DEL508-508)
T1 construct: human bronchial epithelial (HBE) cells derived from CF subjects heterozygous for F508del and a minimal function CFTR mutation; endogenous in cells; host or cells: primary human bronchial epithelial cells from CF subjects (F508del/MF genotype)
Test: Ussing chamber assay of CFTR-mediated short-circuit currents (identification of potentiator compounds)
Type: cell-based
Settings: CFTR-mediated ISC in F508del/MF-HBE cells; incubated 18-24 hours at 37° C. with 10 μM (14S)-8-[3-(2-{dispiro[2.0.2.1]heptan-7-yl}ethoxy)-1H-pyrazol-1-yl]-...-2,2,4-trione, 20% human serum
Method: Ussing Chamber Assay of CFTR-Mediated Short-Circuit Currents
Ussing chamber experiments were performed using human bronchial epithelial (HBE) cells derived from CF subjects heterozygous for F508del and a minimal function CFTR mutation (F508del/MF-HBE) and cultured as previously described (Neuberger T, Burton B, Clark H, Van Goor F Methods Mol Biol 2011:741:39-54). After four days the apical media was removed, and the cells were grown at an air liquid interface for >14 days prior to use.
To isolate the CFTR-mediated short-circuit (ISC) current, F508del/MF-HBE grown on Costar® Snapwell™ cell culture inserts were mounted in an Ussing chamber and the transepithelial ISC was measured under voltage-clamp recording conditions (Vhold=0 mV) at 37° C. The basolateral solution contained (in mM) 145 NaCl, 0.83 K2HPO4, 3.3 KH2PO4, 1.2 MgCl2, 1.2 CaCl2), 10 Glucose, 10 HEPES (pH adjusted to 7.4 with NaOH) and the apical solution contained (in mM) 145 NaGluconate, 1.2 MgCl2, 1.2 CaCl2), 10 glucose, 10 HEPES (pH adjusted to 7.4 with NaOH) and 30 μM amiloride to block the epithelial sodium channel. Forskolin (20 μM) was added to the apical surface to activate CFTR, followed by apical addition of a CFTR inhibitor cocktail consisting of BPO, GlyH-101 and CFTR inhibitor 172 (each at 20 μM final assay concentration) to specifically isolate CFTR currents. The CFTR-mediated ISC (μA/cm^2) for each condition was determined from the peak forskolin response to the steady-state current following inhibition.
Identification of Potentiator Compounds
The activity of the CFTR potentiator compounds on the CFTR-mediated ISC was determined in Ussing chamber studies as described above. The F508del/MF-HBE cell cultures were incubated with the potentiator compounds at a range of concentrations in combination with 10 μM (14S)-8-[3-(2-{dispiro[2.0.2.1]heptan-7-yl}ethoxy)-1H-pyrazol-1-yl]-12,12-dimethyl-2λ^6-thia-3,9,11,18,23-pentaazatetracyclo [17.3.1.111,14.05,10]tetracosa-1(22),5,7,9,19(23),20-hexaene-2,2,4-trione for 18-24 hours at 37° C. and in the presence of 20% human serum. The concentration of potentiator compounds and (14S)-8-[3-(2-{dispiro[2.0.2.1]heptan-7-yl}ethoxy)-1H-pyrazol-1-yl]-12,12-dimethyl-2λ^6-thia-3,9,11,18,23-pentaazatetracyclo [17.3.1.111,14.05,10]tetracosa-1(22),5,7,9,19(23),20-hexaene-2,2,4-trione used during the 18-24 hours incubations was kept constant throughout the Ussing chamber measurement of the CFTR-mediated ISC to ensure compounds were present throughout the entire experiment. The efficacy and potency of the putative F508del potentiators was compared to that of the known Vertex potentiator, ivacaftor (N-[2,4-bis(1,1-dimethylethyl)-5-hydroxyphenyl]-1,4-dihydro-4-oxoquinoline-3-carboxamide).

T1 sequence (P13569 with tags, fused parts or gaps DEL508-508): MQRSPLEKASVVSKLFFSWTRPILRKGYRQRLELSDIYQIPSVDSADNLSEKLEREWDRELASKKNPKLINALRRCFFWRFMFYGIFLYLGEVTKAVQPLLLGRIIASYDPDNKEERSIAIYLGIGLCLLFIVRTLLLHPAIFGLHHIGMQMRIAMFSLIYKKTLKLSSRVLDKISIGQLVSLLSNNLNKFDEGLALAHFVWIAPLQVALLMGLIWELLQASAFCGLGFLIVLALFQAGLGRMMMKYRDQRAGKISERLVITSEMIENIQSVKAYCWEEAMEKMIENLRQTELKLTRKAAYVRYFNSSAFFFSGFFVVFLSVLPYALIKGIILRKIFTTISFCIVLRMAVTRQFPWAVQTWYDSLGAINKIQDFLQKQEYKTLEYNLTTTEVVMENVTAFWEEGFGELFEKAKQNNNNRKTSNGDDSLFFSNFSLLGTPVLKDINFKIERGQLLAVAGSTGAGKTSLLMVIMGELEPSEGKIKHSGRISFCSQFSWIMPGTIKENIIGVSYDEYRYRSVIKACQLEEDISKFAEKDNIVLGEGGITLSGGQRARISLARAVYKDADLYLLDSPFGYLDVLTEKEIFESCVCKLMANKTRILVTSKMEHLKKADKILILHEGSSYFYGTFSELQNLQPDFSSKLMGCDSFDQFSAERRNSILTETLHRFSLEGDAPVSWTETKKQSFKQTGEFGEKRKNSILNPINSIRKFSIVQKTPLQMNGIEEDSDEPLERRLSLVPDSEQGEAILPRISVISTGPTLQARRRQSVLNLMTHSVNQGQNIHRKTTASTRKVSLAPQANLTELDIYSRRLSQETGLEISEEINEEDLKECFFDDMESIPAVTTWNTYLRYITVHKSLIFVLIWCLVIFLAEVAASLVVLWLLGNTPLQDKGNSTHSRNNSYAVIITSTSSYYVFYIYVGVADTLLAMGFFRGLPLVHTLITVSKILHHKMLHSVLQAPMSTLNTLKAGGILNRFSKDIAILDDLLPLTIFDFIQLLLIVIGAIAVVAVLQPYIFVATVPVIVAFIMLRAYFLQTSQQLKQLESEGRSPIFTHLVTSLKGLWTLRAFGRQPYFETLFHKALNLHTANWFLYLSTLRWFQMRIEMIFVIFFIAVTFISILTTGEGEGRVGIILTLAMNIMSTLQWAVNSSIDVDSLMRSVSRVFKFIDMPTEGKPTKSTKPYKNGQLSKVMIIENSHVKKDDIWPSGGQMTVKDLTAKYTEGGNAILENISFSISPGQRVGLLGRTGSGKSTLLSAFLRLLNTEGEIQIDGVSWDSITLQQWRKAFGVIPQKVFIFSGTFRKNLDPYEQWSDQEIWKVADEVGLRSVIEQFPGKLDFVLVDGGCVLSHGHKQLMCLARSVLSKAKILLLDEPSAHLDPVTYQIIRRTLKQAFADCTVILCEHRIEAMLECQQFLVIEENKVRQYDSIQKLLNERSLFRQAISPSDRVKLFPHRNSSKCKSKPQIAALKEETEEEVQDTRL

| EC50 | SMILES |
| --- | --- |
| < 500 nM | CN1CCC=CCCC(=O)C2=NN=C(O2)c2nc1c(C(F)(F)F)cc2N (mixture of isomers) [Compound 75, 17-amino-13-methyl-15-(trifluoromethyl)-19-oxa-3,4,13,18-tetrazatricyclo[12.3.1.12,5]nonadeca-1(18),2,4,9,14,16-hexaen-6-one] |
| > 1000 nM | Nc1cc(-c2ccccc2)c2nc1-c1nnc(o1)C(O)(C(F)(F)F)CCCCC[C@@H]1CCCN21 (mixture of isomers) [Compound 118, (12R)-20-amino-18-phenyl-6-(trifluoromethyl)-22-oxa-3,4,16,21-tetraazatetracyclo[15.3.1.12,5.012,16]docosa-1(21),2,4,17,19-pentaen-6-ol] |
| > 1000 nM | Nc1cc(C2CCOCC2)c2nc1-c1nnc(o1)C(O)(C(F)(F)F)CCCCC[C@@H]1CCCN21 (mixture of isomers) [Compound 123, (12R)-20-amino-18-(oxan-4-yl)-6-(trifluoromethyl)-22-oxa-3,4,16,21-tetraazatetracyclo[15.3.1.12,5.012,16]docosa-1(21),2,4,17,19-pentaen-6-ol] |
| > 1000 nM | Nc1cc(-c2ccncc2)c2nc1-c1nnc(o1)C(O)(C(F)(F)F)CCCCC[C@@H]1CCCN21 (mixture of isomers) [Compound 125, (12R)-20-amino-18-(pyridin-4-yl)-6-(trifluoromethyl)-22-oxa-3,4,16,21-tetraazatetracyclo[15.3.1.12,5.012,16]docosa-1(21),2,4,17,19-pentaen-6-ol] |
| > 1000 nM | Nc1cc(C2CCOC2)c2nc1-c1nnc(o1)C(O)(C(F)(F)F)CCCCC[C@@H]1CCCN21 (mixture of isomers) [Compound 126, (12R)-20-amino-18-(oxolan-3-yl)-6-(trifluoromethyl)-22-oxa-3,4,16,21-tetraazatetracyclo[15.3.1.12,5.012,16]docosa-1(21),2,4,17,19-pentaen-6-ol] |
| < 500 nM | Cn1cc(-c2cc(N)c3nc2N2CCC[C@H]2CCCCCC(O)(C(F)(F)F)C2=NN=C3O2)cn1 (mixture of isomers) [Compound 127, (12R)-20-amino-18-(1-methyl-1H-pyrazol-4-yl)-6-(trifluoromethyl)-22-oxa-3,4,16,21-tetraazatetracyclo[15.3.1.12,5.012,16]docosa-1(21),2,4,17,19-pentaen-6-ol] |
| < 500 nM | Nc1cc(-c2cn[nH]c2)c2nc1-c1nnc(o1)C(O)(C(F)(F)F)CCCCC[C@@H]1CCCN21 (mixture of isomers) [Compound 128, (12R)-20-amino-18-(1H-pyrazol-4-yl)-6-(trifluoromethyl)-22-oxa-3,4,16,21-tetraazatetracyclo[15.3.1.12,5.012,16]docosa-1(21),2,4,17,19-pentaen-6-ol] |
| < 500 nM | Nc1cc(C2CCCCC2)c2nc1-c1nnc(o1)C(O)(C(F)(F)F)CCCCC[C@@H]1CCCN21 (mixture of isomers) [Compound 129, (12R)-20-amino-18-cyclohexyl-6-(trifluoromethyl)-22-oxa-3,4,16,21-tetraazatetracyclo[15.3.1.12,5.012,16]docosa-1(21),2,4,17,19-pentaen-6-ol] |
| > 1000 nM | Nc1cc(-c2ccccn2)c2nc1-c1nnc(o1)C(O)(C(F)(F)F)CCCCC[C@@H]1CCCN21 (mixture of isomers) [Compound 132, (12R)-20-amino-18-(pyridin-2-yl)-6-(trifluoromethyl)-22-oxa-3,4,16,21-tetraazatetracyclo[15.3.1.12,5.012,16]docosa-1(21),2,4,17,19-pentaen-6-ol] |
| < 500 nM | Nc1cc(S(=O)(=O)c2ccccc2)c2nc1-c1nnc(o1)C(O)(C(F)(F)F)CCCCC[C@@H]1CCCN21 (mixture of isomers) [Compound 133, (12R)-20-amino-18-(benzenesulfonyl)-6-(trifluoromethyl)-22-oxa-3,4,16,21-tetraazatetracyclo[15.3.1.12,5.012,16]docosa-1(20),2,4,17(21),18-pentaen-6-ol] |
| < 500 nM | Nc1cc(Cc2ccccc2)c2nc1-c1nnc(o1)C(O)(C(F)(F)F)CCCCC[C@@H]1CCCN21 (mixture of isomers) [Compound 137, (12R)-20-amino-18-benzyl-6-(trifluoromethyl)-22-oxa-3,4,16,21-tetraazatetracyclo[15.3.1.12,5.012,16]docosa-1(21),2,4,17,19-pentaen-6-ol] |
| < 500 nM | Nc1cc(C(F)(F)F)c2nc1-c1nnc(o1)[C@@](O)(C(F)(F)F)c1cc(ccc1F)C=CC[C@@H]1CCCN21 (mixture of isomers) [Compound 138, (6R,15S)-23-amino-8-fluoro-6,21-bis(trifluoromethyl)-26-oxa-3,4,19,24-tetraazapentacyclo[18.3.1.12,5.17,11.015,19]hexacosa-1(24),2,4,7(25),8,10,12,20,22-nonaen-6-ol] |
| > 1000 nM | Nc1cc(C(F)(F)F)c2nc1-c1nnc(o1)[C@](O)(C(F)(F)F)c1cc(ccc1F)C=CC[C@@H]1CCCN21 (mixture of isomers) [Compound 139, (6S,15S)-23-amino-8-fluoro-6,21-bis(trifluoromethyl)-26-oxa-3,4,19,24-tetraazapentacyclo[18.3.1.12,5.17,11.015,19]hexacosa-1(24),2,4,7(25),8,10,12,20,22-nonaen-6-ol] |
| > 1000 nM | NC(=O)c1cc(N)c2nc1N1CCC[C@H]1CCCCCC(O)(C(F)(F)F)C1=NN=C2O1 (mixture of isomers) [Compound 142, (12R)-20-amino-6-hydroxy-6-(trifluoromethyl)-22-oxa-3,4,16,21-tetraazatetracyclo[15.3.1.12,5.012,16]docosa-1(21),2,4,17,19-pentaene-18-carboxamide] |
| < 500 nM | Nc1cc(S(=O)(=O)c2ccc(OC(F)(F)F)cc2)c2nc1-c1nnc(o1)C(O)(C(F)(F)F)CCCCC[C@@H]1CCCN21 (mixture of isomers) [Compound 143, (12R)-20-amino-18-[4-(trifluoromethoxy)benzenesulfonyl]-6-(trifluoromethyl)-22-oxa-3,4,16,21-tetraazatetracyclo[15.3.1.12,5.012,16]docosa-1(20),2,4,17(21),18-pentaen-6-ol] |
| < 500 nM | Nc1cc([S+]([O-])c2ccc(OC(F)(F)F)cc2)c2nc1-c1nnc(o1)C(O)(C(F)(F)F)CCCCC[C@@H]1CCCN21 (mixture of isomers) [Compound 145, (12R)-20-amino-18-[4-(trifluoromethoxy)benzenesulfinyl]-6-(trifluoromethyl)-22-oxa-3,4,16,21-tetraazatetracyclo[15.3.1.12,5.012,16]docosa-1(21),2,4,17,19-pentaen-6-ol] |
| 500 to 1000 nM | Nc1cc(C(F)(F)F)c2nc1-c1nnc(o1)[C@](O)(C(F)(F)F)CCCCC[C@H]1CCCN21 (single isomer, unassigned) [Compound 6] |
| < 500 nM | Nc1cc(C(F)(F)F)c2nc1-c1nnc(o1)[C@@](O)(C(F)(F)F)CCCCC[C@H]1CCCN21 (single isomer, unassigned) [Compound 7] |
| < 500 nM | CN1CCCCCCC(O)(C(F)(F)F)C2=NN=C(O2)c2nc1c(C(F)(F)F)cc2N (single isomer, unassigned) [Compound 19, 17-amino-13-methyl-6,15-bis(trifluoromethyl)-19-oxa-3,4,13,18-tetrazatricyclo[12.3.1.12,5]nonadeca-1(18),2,4,14,16-pentaen-6-ol] |
| 500 to 1000 nM | CN1CCCCCCC(O)(C(F)(F)F)C2=NN=C(O2)c2nc1c(C(F)(F)F)cc2N (single isomer, unassigned) [Compound 20, 17-amino-13-methyl-6,15-bis(trifluoromethyl)-19-oxa-3,4,13,18-tetrazatricyclo[12.3.1.12,5]nonadeca-1(18),2,4,14,16-pentaen-6-ol] |
| < 500 nM | Nc1cc(C(F)(F)F)c2nc1-c1nnc(o1)C(O)CCCCC[C@@H]1CCCN21 (single isomer, unassigned) [Compound 21] |
